“And” between values parts separate entries of the source, which are not always exact repeats. Equal entries are not always repeated.
Experiments:
rat DAT = biological target: T1, rat DAT (Rattus norvegicus, UniProt P23977); details: [3H]-win35,428, Striatum, read-out: Ki values, DAT binding
T1 construct: from tissue; host or cells: Sprague-Dawley rat brain membranes (probably striatum)
Procedure: (§1) Male Sprague–Dawley rats were killed by cervical dislocation, and their brains were rapidly removed and then dissected on ice. The cerebral cortex, hypothalamus and striatum were homogenised in 4 mL of assay buffer (50 mM Tris–HCl buffer, pH 7.4.) and centrifuged at 40,000× g for 10 min at 4 °C. The pellets were centrifuged twice at 20,000× g and then resuspended in 4 mL of assay buffer. […] Bio-Rad protein assay reagents (1:5 ratio) were used to analyse the protein concentration of the synaptosomal suspension.
(§2) All data for inhibition curves were analysed by nonlinear regression using Prism software (GraphPad Software Inc., San Diego, CA) to determine IC50 values. For the microdialysis experiments, two-way repeated-measures ANOVA followed by Tukey’s test was used to compare the percentage increase over baseline between groups, time and treatment as independent factors, and time as the repeated factor.

5-HT7 = 5-HT7 (Homo sapiens, UniProt P34969); assay: CNS receptor binding, 5-HT7; details: HEK293 cell line, [3H]-LSD(4)
Procedure: (§3) Albiflorin (10 μM) was tested for numerous other potential binding targets by using standard receptor binding procedures. The tested targets included the following receptors: D1, D2, D3, D4, D5, 5-HT1A, 5-HT1B, 5-HT1D, 5-HT2a, 5-HT2C, 5-HT3, 5-HT5A, 5-HT6, 5-HT7, α1A, α1B, α2A, β1, M1, M2, M3, M4, M5, μ, κ, δ, A1, A2A, H1, H2, H3, H4.

H2 = H2 (Homo sapiens, UniProt P25021); assay: CNS receptor binding, histamine H2; details: HEK293 cell line, [3H]-tiotodine(1)
Procedure: as §3

H4 = H4 (Homo sapiens, UniProt Q9H3N8); assay: CNS receptor binding, histamine H4; details: CHO cell line, [3H]-histamine(1)
Procedure: as §3

δ = δ (Homo sapiens, UniProt P41143); assay: CNS receptor binding, opioid δ; details: CHO cell line, [3H]-dipnorphine(1)
Procedure: as §3

5-HT1A = 5-HT1A (Homo sapiens, UniProt P08908); assay: CNS receptor binding, 5-HT1A; details: HEK293 cell line, [3H]-8-OH-DPAT(2)
Procedure: as §3

M4 = M4 (Homo sapiens, UniProt P08173); assay: CNS receptor binding, muscarinic M4; details: CHO cell line, [3H]-NMS(1)
Procedure: as §3

hDAT = biological target: T2, hDAT (Homo sapiens, UniProt Q01959); details: [3H]-win35,428, HEK293 cell line, read-out: Ki values, DAT binding
T2 construct: expressed in transfected cells
Procedure: Membranes were prepared from HEK293 cells stably expressing hSERT, hNET, or hDAT as described previously. Briefly, [^3H]-citalopram (1 nM), [^3H]-nisoxetine (2 nM), or [^3H]-WIN35,428 (2 nM) was used to label human 5-HT, NE, or DA transporters, respectively.
as §2

duration of immobility = test system: duration of immobility; set-up: method as in PMID 26719283; details: mice; short- and long-term administration; cited from earlier work
M1 = M1 (Homo sapiens, UniProt P11229); assay: CNS receptor binding, muscarinic M1; details: CHO cell line, [3H]-NMS(1)
Procedure: as §3

rat NET = biological target: T3, rat NET (Rattus norvegicus, UniProt Q63380); assay: Rat monoamine transporter binding assay, NET
T3 construct: from tissue; host or cells: Sprague-Dawley rat hypothalamus membranes
Procedure: as §1, §2

β1 = β1 (Homo sapiens, UniProt P08588); assay: CNS receptor binding, NE receptor β1; details: HEK293 cell line, [3H]-DHA(1)
Procedure: as §3

5-HT3 = 5-HT3 (Homo sapiens, UniProt P46098); assay: CNS receptor binding, 5-HT3; details: HEK293 cell line
Procedure: as §3

[1] = test system: DA levels in the hypothalamus; assay: In vivo microdialysis, extracellular DA; details: oral, 3.5, 7.0 and 14.0 mg/kg, rats
Procedure: The effect of albiflorin on extracellular monoamine levels in […] was determined using methods previously described. Microdialysis probes (CMA Microdialysis) with an active membrane surface of 2 mm were perfused with artificial cerebrospinal fluid (125 mM NaCl, 3 mM KCl, 0.75 mM MgSO4 and 1.2 mM CaCl2, pH 7.4) in situ for at least 18 h before experimentation. The microdialysis probe was then implanted via the guide cannula into the hypothalamus and perfused with artificial cerebral spinal fluid at a flow rate of 1 μL/min. A 3-h stabilisation period was allowed after probe implantation, and dialysate sampling was conducted according to previously described methods. […] All subsequent values were expressed as a percentage of the mean preinjection value (i.e., percentage of baseline). […] For a minimum of 3 h after albiflorin administration, dialysis samples were collected every 20 min and analysed to determine the levels of NE, 5-HT and DA. […] A 20-μL sample from the hypothalamus was analysed for 5-HT, NE and DA content using methods described previously. […] External standard curves were used to quantify the amounts of NE, 5-HT and DA in each sample, which was calculated using the area under the curve.
All data for inhibition curves were analysed by nonlinear regression using Prism software (GraphPad Software Inc., San Diego, CA) to determine IC50 values. […]

5-HT5A = 5-HT5A (Homo sapiens, UniProt P47898); assay: CNS receptor binding, 5-HT5A; details: HEK293 cell line, [3H]-LSD(1)
Procedure: as §3

[2] = read-out: IC50 values for albiflorin

T3 sequence (Q63380 1-617): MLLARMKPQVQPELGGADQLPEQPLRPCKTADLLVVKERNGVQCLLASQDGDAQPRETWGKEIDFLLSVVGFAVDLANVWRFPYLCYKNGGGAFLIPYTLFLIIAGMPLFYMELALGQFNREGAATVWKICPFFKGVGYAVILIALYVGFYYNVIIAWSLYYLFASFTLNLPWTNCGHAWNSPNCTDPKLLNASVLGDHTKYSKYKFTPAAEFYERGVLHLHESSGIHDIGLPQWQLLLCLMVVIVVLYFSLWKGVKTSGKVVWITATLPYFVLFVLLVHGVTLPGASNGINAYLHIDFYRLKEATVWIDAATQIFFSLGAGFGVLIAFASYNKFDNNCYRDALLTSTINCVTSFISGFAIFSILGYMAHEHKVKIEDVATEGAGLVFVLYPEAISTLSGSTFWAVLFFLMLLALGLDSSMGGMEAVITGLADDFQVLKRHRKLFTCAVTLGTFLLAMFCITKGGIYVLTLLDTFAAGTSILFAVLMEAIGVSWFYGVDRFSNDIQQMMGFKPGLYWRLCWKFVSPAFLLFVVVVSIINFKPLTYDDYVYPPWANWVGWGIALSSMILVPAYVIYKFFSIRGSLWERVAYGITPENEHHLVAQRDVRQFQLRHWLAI
Sequence of 5-HT5A (P47898 whole entry): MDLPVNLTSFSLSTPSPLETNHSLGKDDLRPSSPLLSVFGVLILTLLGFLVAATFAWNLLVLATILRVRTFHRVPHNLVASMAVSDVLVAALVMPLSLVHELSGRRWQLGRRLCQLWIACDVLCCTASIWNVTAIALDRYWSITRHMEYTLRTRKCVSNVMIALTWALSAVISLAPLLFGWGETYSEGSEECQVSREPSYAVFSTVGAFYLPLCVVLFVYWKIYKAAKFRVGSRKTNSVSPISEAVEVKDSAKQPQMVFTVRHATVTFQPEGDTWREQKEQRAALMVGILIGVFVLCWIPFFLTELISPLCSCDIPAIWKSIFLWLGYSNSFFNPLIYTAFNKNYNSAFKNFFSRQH
Sequence of 5-HT1A (P08908 whole entry): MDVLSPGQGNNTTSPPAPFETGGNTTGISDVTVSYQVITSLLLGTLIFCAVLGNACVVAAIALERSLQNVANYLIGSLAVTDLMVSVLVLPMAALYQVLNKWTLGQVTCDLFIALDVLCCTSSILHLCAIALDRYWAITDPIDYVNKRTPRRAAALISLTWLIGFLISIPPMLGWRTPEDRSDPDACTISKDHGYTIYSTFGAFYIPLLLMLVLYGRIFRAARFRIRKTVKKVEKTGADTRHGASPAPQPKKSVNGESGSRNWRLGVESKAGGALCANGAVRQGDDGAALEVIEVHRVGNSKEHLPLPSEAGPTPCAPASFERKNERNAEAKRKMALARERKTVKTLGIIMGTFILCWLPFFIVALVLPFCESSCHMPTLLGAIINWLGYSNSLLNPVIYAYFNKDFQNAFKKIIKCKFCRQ
Sequence of β1 (P08588 whole entry): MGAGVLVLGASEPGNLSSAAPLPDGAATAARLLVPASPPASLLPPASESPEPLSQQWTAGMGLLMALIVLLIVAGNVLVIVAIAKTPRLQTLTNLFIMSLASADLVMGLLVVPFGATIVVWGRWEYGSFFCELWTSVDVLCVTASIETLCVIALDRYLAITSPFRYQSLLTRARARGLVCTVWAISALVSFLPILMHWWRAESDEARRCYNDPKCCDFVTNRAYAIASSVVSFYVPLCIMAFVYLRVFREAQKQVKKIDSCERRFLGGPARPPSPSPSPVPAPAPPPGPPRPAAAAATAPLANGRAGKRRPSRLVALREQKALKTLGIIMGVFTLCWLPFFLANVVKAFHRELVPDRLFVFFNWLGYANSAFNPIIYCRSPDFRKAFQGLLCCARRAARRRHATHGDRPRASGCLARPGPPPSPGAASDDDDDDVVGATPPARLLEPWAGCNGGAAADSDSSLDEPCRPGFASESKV
Sequence of M4 (P08173 whole entry): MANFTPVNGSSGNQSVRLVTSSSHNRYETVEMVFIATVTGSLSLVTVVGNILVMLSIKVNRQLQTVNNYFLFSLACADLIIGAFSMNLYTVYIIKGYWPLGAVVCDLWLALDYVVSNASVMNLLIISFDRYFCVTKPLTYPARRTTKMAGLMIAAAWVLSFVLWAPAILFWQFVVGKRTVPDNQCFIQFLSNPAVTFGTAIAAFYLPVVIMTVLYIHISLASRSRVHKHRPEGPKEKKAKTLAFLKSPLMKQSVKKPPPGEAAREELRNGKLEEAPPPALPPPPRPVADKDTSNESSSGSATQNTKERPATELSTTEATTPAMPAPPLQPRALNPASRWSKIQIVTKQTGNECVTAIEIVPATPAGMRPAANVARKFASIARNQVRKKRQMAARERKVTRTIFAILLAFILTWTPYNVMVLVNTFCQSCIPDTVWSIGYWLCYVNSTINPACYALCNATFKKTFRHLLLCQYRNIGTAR
Sequence of 5-HT7 (P34969 whole entry): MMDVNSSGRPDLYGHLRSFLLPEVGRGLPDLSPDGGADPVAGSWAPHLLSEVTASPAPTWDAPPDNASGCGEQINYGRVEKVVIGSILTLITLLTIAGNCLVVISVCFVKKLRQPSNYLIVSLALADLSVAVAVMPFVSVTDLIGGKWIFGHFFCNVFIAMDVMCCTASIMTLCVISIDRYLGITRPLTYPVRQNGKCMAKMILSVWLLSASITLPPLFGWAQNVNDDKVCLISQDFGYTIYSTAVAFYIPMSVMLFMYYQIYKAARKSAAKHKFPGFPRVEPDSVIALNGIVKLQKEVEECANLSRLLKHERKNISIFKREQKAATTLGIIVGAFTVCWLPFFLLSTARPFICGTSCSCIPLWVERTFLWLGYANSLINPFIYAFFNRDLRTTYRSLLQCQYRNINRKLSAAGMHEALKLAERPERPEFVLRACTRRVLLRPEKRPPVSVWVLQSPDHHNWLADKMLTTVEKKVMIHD
Sequence of H4 (Q9H3N8 whole entry): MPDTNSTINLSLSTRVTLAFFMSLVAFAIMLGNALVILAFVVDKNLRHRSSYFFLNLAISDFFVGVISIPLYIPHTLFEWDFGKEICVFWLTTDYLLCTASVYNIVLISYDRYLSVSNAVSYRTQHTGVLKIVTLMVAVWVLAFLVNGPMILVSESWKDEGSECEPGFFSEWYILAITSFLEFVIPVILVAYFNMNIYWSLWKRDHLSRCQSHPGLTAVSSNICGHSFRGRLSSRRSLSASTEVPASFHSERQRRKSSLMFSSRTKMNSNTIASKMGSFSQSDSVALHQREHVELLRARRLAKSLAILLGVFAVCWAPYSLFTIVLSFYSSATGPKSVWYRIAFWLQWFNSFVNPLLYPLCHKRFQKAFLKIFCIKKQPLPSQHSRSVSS
Sequence of M1 (P11229 whole entry): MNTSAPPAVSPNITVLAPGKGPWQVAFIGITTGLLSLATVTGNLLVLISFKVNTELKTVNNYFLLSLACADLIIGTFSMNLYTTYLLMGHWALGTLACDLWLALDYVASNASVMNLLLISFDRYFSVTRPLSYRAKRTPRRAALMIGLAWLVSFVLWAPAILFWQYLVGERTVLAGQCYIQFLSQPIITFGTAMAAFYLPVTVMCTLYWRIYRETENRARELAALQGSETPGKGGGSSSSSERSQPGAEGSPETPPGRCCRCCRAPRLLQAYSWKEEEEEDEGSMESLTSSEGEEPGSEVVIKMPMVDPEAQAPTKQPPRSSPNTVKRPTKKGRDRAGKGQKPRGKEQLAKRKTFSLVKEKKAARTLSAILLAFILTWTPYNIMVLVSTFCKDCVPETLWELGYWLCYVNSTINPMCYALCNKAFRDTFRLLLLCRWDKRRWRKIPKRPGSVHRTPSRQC
Sequence of δ (P41143 whole entry): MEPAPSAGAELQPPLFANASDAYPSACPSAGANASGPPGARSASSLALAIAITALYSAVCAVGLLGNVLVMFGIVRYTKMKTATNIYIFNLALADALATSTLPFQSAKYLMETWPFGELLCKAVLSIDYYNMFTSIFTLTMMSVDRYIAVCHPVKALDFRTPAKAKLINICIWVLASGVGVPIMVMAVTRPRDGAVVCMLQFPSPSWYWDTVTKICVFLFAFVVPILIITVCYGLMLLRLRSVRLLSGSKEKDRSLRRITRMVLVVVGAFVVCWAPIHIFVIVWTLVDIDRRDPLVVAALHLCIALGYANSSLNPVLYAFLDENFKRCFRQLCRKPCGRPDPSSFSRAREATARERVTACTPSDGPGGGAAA
Sequence of 5-HT3 (P46098 24-478): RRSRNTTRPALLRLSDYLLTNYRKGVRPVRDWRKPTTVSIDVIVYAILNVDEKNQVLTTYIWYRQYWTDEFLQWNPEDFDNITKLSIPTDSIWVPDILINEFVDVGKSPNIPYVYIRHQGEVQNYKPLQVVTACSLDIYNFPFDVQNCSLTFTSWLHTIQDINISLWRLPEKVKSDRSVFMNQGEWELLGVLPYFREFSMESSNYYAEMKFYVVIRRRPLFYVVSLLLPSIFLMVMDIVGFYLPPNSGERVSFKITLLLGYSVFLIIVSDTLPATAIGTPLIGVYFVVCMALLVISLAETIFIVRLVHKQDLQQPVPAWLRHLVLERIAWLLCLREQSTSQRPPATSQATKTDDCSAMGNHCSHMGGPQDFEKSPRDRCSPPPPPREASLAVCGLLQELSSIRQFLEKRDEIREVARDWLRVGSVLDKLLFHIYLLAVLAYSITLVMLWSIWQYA
Sequence of H2 (P25021 whole entry): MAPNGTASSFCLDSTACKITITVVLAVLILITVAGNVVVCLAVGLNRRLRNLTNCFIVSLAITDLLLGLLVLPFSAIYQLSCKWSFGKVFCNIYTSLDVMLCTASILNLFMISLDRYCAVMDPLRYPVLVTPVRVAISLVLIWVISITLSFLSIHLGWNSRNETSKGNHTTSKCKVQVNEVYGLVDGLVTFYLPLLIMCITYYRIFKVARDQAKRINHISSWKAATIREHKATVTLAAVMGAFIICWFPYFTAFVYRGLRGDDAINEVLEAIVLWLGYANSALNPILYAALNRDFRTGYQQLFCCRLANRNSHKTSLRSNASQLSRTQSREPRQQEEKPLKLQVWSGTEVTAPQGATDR

For `C[C@]12C[C@@H](O)[C@@H]3C[C@@]1(O[C@@H]1O[C@H](CO)[C@@H](O)[C@H](O)[C@H]1O)[C@@]3(COC(=O)c1ccccc1)C(=O)O2` [albiflorin, Albiflorin], the Ki (rat DAT) was 3.656 ± 0.0254 µM, the “% Inhibition of binding at 10 μM albiflorin” value (“% Inhibition of binding” below) (5-HT7) was 14.55% and the IC50 (5-HT7; [2]) was greater than 10 µM. For the same compound, the “% Inhibition of binding” value (H2) was 68.99%, the IC50 (H2; [2]) was 4 ± 0.201 µM and the “% Inhibition of binding” value (H4) was 6.33%. For the same compound, the IC50 (H4; [2]) was greater than 10 µM, the “% Inhibition of binding” value (δ) was 66.33% and the IC50 (δ; [2]) was 3.66 ± 0.201 µM. For the same compound, the “% Inhibition of binding” value (5-HT1A) was 69.60%, the IC50 (5-HT1A; [2]) was 4 ± 0.662 µM and the “% Inhibition of binding” value (M4) was 15.33%. For the same compound, the IC50 (M4; [2]) was greater than 10 µM, the Ki (hDAT) was 1.48 ± 0.0333 µM and the “antidepressant-like effect, forced-swim test” value (duration of immobility) was “decreases in the duration of immobility”. The “% Inhibition of binding” value (M1) was 21.28%, the IC50 (M1; [2]) was greater than 10 µM and the Ki (rat NET; Rat, [3H]-nisoxetine, Hypothalamus) was 0.00125 ± 0.00077 µM. The “potency/affinity relative to desipramine at the rat NET” value (rat NET; albiflorin vs desipramine) was 4 fold and 6 fold, the “% Inhibition of binding” value (β1) was 63.22% and the IC50 (β1; [2]) was 3.35 ± 0.212 µM. The “% Inhibition of binding” value (5-HT3; [3H]-BRL3694) was 17.38%, the IC50 (5-HT3; [3H]-BRL3694, read-out: IC50 values for albiflorin) was greater than 10 µM and the “effect on DA levels in the hypothalamus” value [1] was “not elevated”. For the same compound, the “% Inhibition of binding” value (5-HT5A) was 20.11% and the IC50 (5-HT5A; [2]) was greater than 10 µM.
